Data from publication PMC5979480 (International Journal of Molecular Sciences, 2018).

What was measured:
[1] = tested on: 6-OHDA hemi-parkinsonian (PD) rats; assay: Apomorphine-induced contralateral rotation; type: in vivo, Sprague-Dawley rats
Description: (§1) Modified surgical procedures were based on our previously described methods. Under Zoletil-Rumpun (10 mg/kg: 2 mg/kg, i.p.) anesthesia, SD rats were placed in a stereotaxic frame with the nose bar positioned 3.3 mm below the interaural line. Unilateral 6-hydroxydopamine (6-OHDA, 8 μg dissolved in 0.9% saline with 0.02% ascorbic acid) was injected for DA lesions into the left median forebrain bundle (MFB, coordinates: anteroposterior [49, 53], −4.3 mm; lateral (L), 1.6 mm from bregma; ventral (V), 8.2 mm from the dura).
Apomorphine (0.5 mg/kg in 0.1% ascorbic acid, s.c.)-induced contralateral rotations were recorded using a digital video camera to count the number of rotations for 60 min at weekly intervals up to 4 weeks post-lesion (i.e., 7, 14, 21, and 28 days post-lesion) using the same test conditions. The net number of rotations was calculated (contralateral minus ipsilateral full turns). In unilaterally 6-OHDA lesioned animals, apomorphine-induced contralateral rotation is a well-established correlate of dopamine depletion, with rotation levels seen here indicative of an 80–90% loss.

TBI injury in rats = settings: 38.5 µg/kg/day GIP (equivalent to 7.8 nmol/kg/day); cited from earlier work
[2] = tested on: 6-OHDA hemi-parkinsonian (PD) rats; assay: Open-field test (locomotor and anxiety-like behavior); type: in vivo, Sprague-Dawley rats; settings: 15 nmol/kg/day s.c. pump
Description: as §1
In addition to its well-known motor manifestations, PD is also known to elicit neuropsychiatric disorders such as anxiety. We thus used open field measurements in the lesioned animals, as well as in intact animals, to evaluate not only general motor activity but also anxiety-related exploratory activity. Rats were first habituated to an open field Plexiglas arena (60 × 60 × 100 cm) for 10 min at day 4 and 5 post-lesion. At day 6 post-lesion, locomotor activity and anxiety-like behavior were monitored for 10 min using open field tests. The rat behaviors were recorded using an EthoVision system. Total distance, velocity, and freezing times in the open-field were considered general locomotor activities. The number and retention times in the central zone of the open field were measured as anxiety-like behaviors. The center of the open field was defined as a 30 × 30 cm^2 in the geometric center of the arena.

[3] = in vivo; cited from earlier work

Row | Compound | Sensitization (progressive increase in apomorphine-induced rotations with repeated weekly tests) ([1]; 15 nmol/kg/day GIP, weekly tests up to 4 weeks post-lesion, time effect GIP p = 0.940) | Apomorphine-induced rotation, GIP vs saline ([1]; 15 nmol/kg/day s.c. pump for 2 weeks from 2 days pre-lesion, apomorphine 0.5 mg/kg s.c., 60 min, week 3 (p = 0.042) and week 4 (p = 0.019) post-6-OHDA, saline n = 9, GIP n = 10) | Initial levels of apomorphine-induced rotations ([1]; apomorphine 0.5 mg/kg, both lesioned groups (saline and GIP 15 nmol/kg/day)) | Effect on TBI injury (TBI injury in rats) | Open-field locomotor behavior (total distance moved, velocity, freezing time) ([2]; 10 min open field post-lesion, GIP vs saline p = 0.031, 0.021, 0.034, saline n = 8, GIP15 n = 5, naïve n = 6) | Number of entries into the central zone, GIP vs saline ([2]; 10 min open field, p = 0.008) | Retention times in the central zone, GIP vs saline ([2]; 10 min open field, p = 0.218) | Share of plasma levels reaching the brain [3] [%]
1 | CC[C@H](C)[C@H](NC(=O)[C@H](CO)NC(=O)[C@H](Cc1ccc(O)cc1)NC(=O)[C@H](CC(=O)O)NC(=O)[C@H](CO)NC(=O)[C@@H](NC(=O)[C@H](Cc1ccccc1)NC(=O)[C@@H](NC(=O)CNC(=O)[C@H](CCC(=O)O)NC(=O)[C@H](C)NC(=O)[C@@H](N)Cc1ccc(O)cc1)[C@@H](C)O)[C@@H](C)CC)C(=O)N[C@@H](C)C(=O)N[C@@H](CCSC)C(=O)N[C@@H](CC(=O)O)C(=O)N[C@@H](CCCCN)C(=O)N[C@H](C(=O)N[C@@H](Cc1c[nH]cn1)C(=O)N[C@@H](CCC(N)=O)C(=O)N[C@@H](CCC(N)=O)C(=O)N[C@@H](CC(=O)O)C(=O)N[C@@H](Cc1ccccc1)C(=O)N[C@H](C(=O)N[C@@H](CC(N)=O)C(=O)N[C@@H](Cc1c[nH]c2ccccc12)C(=O)N[C@@H](CC(C)C)C(=O)N[C@@H](CC(C)C)C(=O)N[C@@H](C)C(=O)N[C@@H](CCC(N)=O)C(=O)N[C@@H](CCCCN)C(=O)NCC(=O)N[C@@H](CCCCN)C(=O)N[C@@H](CCCCN)C(=O)N[C@@H](CC(N)=O)C(=O)N[C@@H](CC(=O)O)C(=O)N[C@@H](Cc1c[nH]c2ccccc12)C(=O)N[C@@H](CCCCN)C(=O)N[C@@H](Cc1c[nH]cn1)C(=O)N[C@@H](CC(N)=O)C(=O)N[C@H](C(=O)N[C@H](C(=O)N[C@@H](CCC(N)=O)C(=O)O)[C@@H](C)O)[C@@H](C)CC)C(C)C)[C@@H](C)CC [GIP, glucose-dependent insulinotropic polypeptide] | not seen | statistically significant differences | over 400 | effectively mitigated TBI injury | improved locomotor behavior to a level similar to the naïve group | significantly higher | trended to improve this deficit | –
2 | Exenatide | – | – | – | – | – | – | – | ~2
